Data as given in the supplement of paper PMC6335503.
± gives the standard deviation of the averaged measurements.

Key:
Assay in all cases: cell viability, percent of DMSO control (CellTiter-Glo); higher = more viable cells
Details in all cases: 72 h
[1] = test system: DFTD cell line T1 (06/2887)
Experimental: (§1)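 Eight-point dose titration of 41 screen hits in triplicate wells on four Tasmanian devil DFTD tumour cell lines (T1-T4) and devil fibroblasts, 384-well plates. Viability was read by CellTiter-Glo (ATP) after 72 h at 37 °C. Percent of control per plate: DMSO wells = 100%, positive-control wells = 0%.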

[2] = test system: DFTD cell line T2 (05/2569)
Experimental: as §1

[3] = test system: DFTD cell line T3 (06/0368)
Experimental: as §1

[4] = test system: DFTD cell line T4 (07/0192)
Experimental: as §1

CC(C)(C)P(=NC(=S)NCCCO)(N1CCCCCC1)N1CCCCCC1 [T0503-0280]
cell viability ([1]; 0.00617 µM): 94.1 ± 27%
cell viability ([1]; 0.0185 µM): 106 ± 11%
cell viability ([1]; 0.0556 µM): 125 ± 34%
cell viability ([1]; 0.166667 µM): 116 ± 20%
cell viability ([1]; 0.5 µM): 96.1 ± 16%
cell viability ([1]; 1.5 µM): 50.7 ± 1.9%
cell viability ([1]; 4.5 µM): 24.5 ± 5.4%
cell viability ([1]; 13.5 µM): 19.9 ± 4.7%
cell viability ([2]; 0.00617 µM): 107 ± 2.3%
cell viability ([2]; 0.0185 µM): 87.6 ± 8.5%
cell viability ([2]; 0.0556 µM): 127 ± 32%
cell viability ([2]; 0.166667 µM): 115 ± 23%
cell viability ([2]; 0.5 µM): 92.6 ± 16%
cell viability ([2]; 1.5 µM): 68.7 ± 3%
cell viability ([2]; 4.5 µM): 14.8 ± 7.5%
cell viability ([2]; 13.5 µM): 27.7 ± 5.1%
cell viability ([3]; 0.00617 µM): 106 ± 36%
cell viability ([3]; 0.0185 µM): 83.3 ± 13%
cell viability ([3]; 0.0556 µM): 134 ± 33%
cell viability ([3]; 0.166667 µM): 118 ± 33%
cell viability ([3]; 0.5 µM): 99.4 ± 22%
cell viability ([3]; 1.5 µM): 66 ± 7.1%
cell viability ([3]; 4.5 µM): 17.6 ± 7.5%
cell viability ([3]; 13.5 µM): 16.1 ± 3.9%
cell viability ([4]; 0.00617 µM): 118 ± 31%
cell viability ([4]; 0.0185 µM): 85.2 ± 29%
cell viability ([4]; 0.0556 µM): 129 ± 32%
cell viability ([4]; 0.166667 µM): 105 ± 22%
cell viability ([4]; 0.5 µM): 112 ± 28%
cell viability ([4]; 1.5 µM): 38.2 ± 8.4%
cell viability ([4]; 4.5 µM): 11.4 ± 5.1%
cell viability ([4]; 13.5 µM): 30.9 ± 5.5%

CCS(=O)(=O)c1cccc(-c2cc(C(=O)NC3CCN(C)CC3)c(C)c3[nH]c4ncc(C)cc4c23)c1 [TAK901]
cell viability ([1]; 0.00617 µM): 104 ± 3.3%
cell viability ([1]; 0.0185 µM): 109 ± 4.1%
cell viability ([1]; 0.0556 µM): 113 ± 30%
cell viability ([1]; 0.166667 µM): 121 ± 45%
cell viability ([1]; 0.5 µM): 138 ± 43%
cell viability ([1]; 1.5 µM): 59.4 ± 16%
cell viability ([1]; 4.5 µM): 12 ± 12%
cell viability ([1]; 13.5 µM): -4.29 ± 16%
cell viability ([2]; 0.00617 µM): 125 ± 23%
cell viability ([2]; 0.0185 µM): 103 ± 6.1%
cell viability ([2]; 0.0556 µM): 127 ± 49%
cell viability ([2]; 0.166667 µM): 111 ± 46%
cell viability ([2]; 0.5 µM): 126 ± 57%
cell viability ([2]; 1.5 µM): 42.4 ± 14%
cell viability ([2]; 4.5 µM): 1.18 ± 6.5%
cell viability ([2]; 13.5 µM): -1.98 ± 9.4%
cell viability ([3]; 0.00617 µM): 106 ± 16%
cell viability ([3]; 0.0185 µM): 105 ± 5.8%
cell viability ([3]; 0.0556 µM): 95.9 ± 19%
cell viability ([3]; 0.166667 µM): 98.5 ± 24%
cell viability ([3]; 0.5 µM): 104 ± 39%
cell viability ([3]; 1.5 µM): 42.6 ± 8.9%
cell viability ([3]; 4.5 µM): 4.34 ± 1.3%
cell viability ([3]; 13.5 µM): -3.65 ± 7.5%
cell viability ([4]; 0.00617 µM): 99.7 ± 11%
cell viability ([4]; 0.0185 µM): 109 ± 12%
cell viability ([4]; 0.0556 µM): 103 ± 14%
cell viability ([4]; 0.166667 µM): 104 ± 27%
cell viability ([4]; 0.5 µM): 96.7 ± 34%
cell viability ([4]; 1.5 µM): 26.5 ± 13%
cell viability ([4]; 4.5 µM): -1.88 ± 6.3%
cell viability ([4]; 13.5 µM): -6.14 ± 11%

COc1cc2ncnc(Nc3ccc(O)c(Br)c3)c2cc1OC [WHI-P154]
cell viability ([1]; 0.00617 µM): 90.9 ± 16%
cell viability ([1]; 0.0185 µM): 125 ± 11%
cell viability ([1]; 0.0556 µM): 103 ± 4.3%
cell viability ([1]; 0.166667 µM): 86 ± 8.7%
cell viability ([1]; 0.5 µM): 46.2 ± 6.1%
cell viability ([1]; 1.5 µM): 36.9 ± 1.8%
cell viability ([1]; 4.5 µM): 25 ± 6.5%
cell viability ([1]; 13.5 µM): 21.8 ± 7.4%
cell viability ([2]; 0.00617 µM): 85 ± 18%
cell viability ([2]; 0.0185 µM): 116 ± 23%
cell viability ([2]; 0.0556 µM): 105 ± 11%
cell viability ([2]; 0.166667 µM): 95.7 ± 33%
cell viability ([2]; 0.5 µM): 58.1 ± 7.2%
cell viability ([2]; 1.5 µM): 45.3 ± 6.6%
cell viability ([2]; 4.5 µM): 32.1 ± 2.2%
cell viability ([2]; 13.5 µM): 20.6 ± 1.1%
cell viability ([3]; 0.00617 µM): 76.9 ± 11%
cell viability ([3]; 0.0185 µM): 125 ± 22%
cell viability ([3]; 0.0556 µM): 98.1 ± 12%
cell viability ([3]; 0.166667 µM): 92 ± 8.6%
cell viability ([3]; 0.5 µM): 67.7 ± 12%
cell viability ([3]; 1.5 µM): 55.6 ± 19%
cell viability ([3]; 4.5 µM): 40.4 ± 8.2%
cell viability ([3]; 13.5 µM): 32.8 ± 2.4%
cell viability ([4]; 0.00617 µM): 85.6 ± 27%
cell viability ([4]; 0.0185 µM): 134 ± 11%
cell viability ([4]; 0.0556 µM): 115 ± 8.3%
cell viability ([4]; 0.166667 µM): 84.5 ± 18%
cell viability ([4]; 0.5 µM): 69 ± 21%
cell viability ([4]; 1.5 µM): 42.4 ± 13%
cell viability ([4]; 4.5 µM): 30.6 ± 2.3%
cell viability ([4]; 13.5 µM): 19.7 ± 3%

COCCn1c2c([n+](Cc3cnccn3)c1C)C(=O)c1ccccc1C2=O.[Br-] [YM155]
cell viability ([1]; 0.00617 µM): 106 ± 18%
cell viability ([1]; 0.0185 µM): 104 ± 42%
cell viability ([1]; 0.0556 µM): 109 ± 24%
cell viability ([1]; 0.166667 µM): 80.8 ± 14%
cell viability ([1]; 0.5 µM): 38.4 ± 4%
cell viability ([1]; 1.5 µM): 6.92 ± 7.1%
cell viability ([1]; 4.5 µM): 1.97 ± 6.9%
cell viability ([1]; 13.5 µM): -9.67 ± 4.5%
cell viability ([2]; 0.00617 µM): 106 ± 22%
cell viability ([2]; 0.0185 µM): 87.2 ± 38%
cell viability ([2]; 0.0556 µM): 111 ± 16%
cell viability ([2]; 0.166667 µM): 91.9 ± 9.9%
cell viability ([2]; 0.5 µM): 42.4 ± 4.4%
cell viability ([2]; 1.5 µM): 4.91 ± 8%
cell viability ([2]; 4.5 µM): -0.0383 ± 6.3%
cell viability ([2]; 13.5 µM): -10.8 ± 3.4%
cell viability ([3]; 0.00617 µM): 111 ± 22%
cell viability ([3]; 0.0185 µM): 95.3 ± 29%
cell viability ([3]; 0.0556 µM): 105 ± 12%
cell viability ([3]; 0.166667 µM): 89.3 ± 12%
cell viability ([3]; 0.5 µM): 22 ± 11%
cell viability ([3]; 1.5 µM): 5.85 ± 4.9%
cell viability ([3]; 4.5 µM): 4.15 ± 5.5%
cell viability ([3]; 13.5 µM): -5.27 ± 4.6%
cell viability ([4]; 0.00617 µM): 107 ± 30%
cell viability ([4]; 0.0185 µM): 91.5 ± 33%
cell viability ([4]; 0.0556 µM): 86.1 ± 17%
cell viability ([4]; 0.166667 µM): 32.4 ± 3.5%
cell viability ([4]; 0.5 µM): 7.29 ± 8.8%
cell viability ([4]; 1.5 µM): -1.02 ± 5.1%
cell viability ([4]; 4.5 µM): 5.5 ± 0.64%
cell viability ([4]; 13.5 µM): -4.07 ± 5.9%
